Measurements: US20250295679A1, “Compositions and Dosage Forms for Treatment of HPV Infection and HPV-Induced Neoplasia” (priority 2022, published 2025)
Read-outs that look alike come from different tables or passages of the source.

What was measured:
[1] = system: HEK293 cells; test: In vitro cytotoxicity, XTT, five days
Description: (§1) Three compounds (Compound I, Compound II and Compound III) were solubilized at 40 mM in DMSO and stored at −20° C. The test compounds were evaluated using a high test concentration of 50 μM. Serial half-logarithmic dilutions were performed for the in vitro cytotoxicity assays.
(§2) Cells listed in Table 70 were enumerated by Trypan Blue Dye exclusion method and seeded in the interior wells of a 96 well flat bottom microtiter plate at 100 μL/well. Proliferating cells were incubated overnight at 37° C./5% CO2 to allow the cells to adhere to the plates at approximately 70% confluency. Tissue culture medium was removed and replaced with 100 μL/well of fresh medium. One-hundred microliters (100 μL) of each compound at six concentrations was transferred to the 96-well plate containing the cells in triplicate. Table 70 lists the cell line, type of cell, source of cell stock, base tissue culture medium supplemented with 10% fetal bovine serum, 2 mM L-glutamine, 100 U/mL penicillin and 100 μg/mL streptomycin, and microtiter plate seeding density.
(§3) Following incubation at 37° C. in a 5% CO2 incubator for five days, the test plates were stained with the tetrazolium dye XTT (2,3-bis(2-methoxy-4-nitro-5-sulfopheny1)-5-[(phenylamino)carbonyl]-2H-tetrazolium hydroxide). XTT-tetrazolium was metabolized by the mitochondrial enzymes of metabolically active cells to a soluble formazan product. XTT solution was prepared daily as a stock of 1 mg/ml in RPM11640. Phenazine methosulfate (PMS) solution was prepared at 0.15 mg/ml in PBS and stored in the dark at −20° C. XTT/PMS stock was prepared immediately before use by adding 40 μL of PMS per ml of XTT solution. Fifty microliters of XTT/PMS were added to each well of the plate and the plate was reincubated for 4 hours at 37° C. Plates were sealed with adhesive plate sealers and shaken gently or inverted several times to mix the soluble formazan product and the plate was read spectrophotometrically at 450/650 nm with a Molecular Devices Vmax plate reader.
(§4) Microsoft Excel 2010 was used to analyze and graph the raw data. […] Raw data for cytotoxicity with a graphic representation of the data are provided in a printout summarizing the compound effect on cell viability.
(§5) Compounds I, II, and III were evaluated for cytotoxicity to proliferating Hs27, HeLa, C33A and HEK293 cells by measuring cell viability using XTI tetrazolium dye following five days in culture (Table 71).

[2] = Hygroscopicity by DVS at 25° C.; format: physicochemical
Description: Hygroscopicity was investigated by DVS at 25° C., using the following method: • Method: 40-0-95-0-40% RH, dm/dt=0.002

[3] = Bulk (accelerated) stability, one week, HPLC and XRPD; details: initial chemical purity before storage; listed as Compound I monofumarate Pattern 1, monofumarate
Description: Bulk stability: Accelerated stability experiments were conducted at 25° C./92% RH and 40° C./75% RH in an open container, 60° C. in a tight container for one week.
Samples were characterized by XRPD and HPLC and inspected for color change.
Accelerated stability experiments were conducted at 25° C./92% RH in an open container, at 40° C./75% RH in an open container, and at 60° C. in a tight container for one week.

[4] = Behavior under compression, grinding and granulation simulation (XRPD); format: physicochemical
Description: About 10 mg of Compound I monofumarate Pattern 1 (Example 7) was compressed for 5 minutes at 10 MPa with a hydraulic press. XRPD characterization was performed to investigate the polymorphic behavior under compression.
About 10 mg of Compound I monofumarate Pattern 1 (Example 7) was ground manually with a mortar and pestle for 5 min. Form transformation and degree of crystallinity was evaluated by XRPD.
Water or ethanol was added drop wise to about 10 mg of Compound I monofumarate Pattern 1 (Example 7) until solids were wetted sufficiently. The samples were ground manually with a mortar and pestle for 3 minutes. Samples are dried under ambient condition for 10 min.
Form transformation and degree of crystallinity were evaluated by XRPD.

[5] = Solubility in buffers, water and simulated vaginal fluid at 37° C.; details: 37° C.
Description: About 4 mg of Compound I Pattern 1 was added into 2 mL of buffer solution.
(§6) Solubility was tested in five media, pH 3.0 citrate buffer, pH 4.5 acetate buffer, pH 6.8 phosphate buffer, water, simulated vaginal fluid (pH 4.2) at 37° C. for 0.5 h and 2 h.
The salt amount used is equivalent to 10 mg anhydrous free base. […] The obtained clear solutions were analyzed by pH meter for pH, and solubility was determined by observation.
as §6

[6] = Tablet stability study (storage, purity by HPLC); format: physicochemical
Description: Tablets were prepared using the excipients and excipient ratios shown in the first column of the following tables. The tablets were then stored under the conditions indicated and periodically sampled and tested for purity by HPLC.

[7] = system: C33A cells; test: In vitro cytotoxicity, XTT, five days; details: read-out: C33A CC50, proliferating C33A cells
Description: as §1, §2, §3, §4, §5

[8] = system: Hs27 cells
Description: as §1, §2, §3, §4, §5

[9] = system: HeLa cells
Description: as §1, §2, §3, §4, §5

[10] = ground manually with mortar and pestle for 5 min

## CCOC(=O)C(C)NP(=O)(COCCn1cnc2c(OC)nc(N)nc21)OCc1ccccc1 (mixture of isomers) [AB12280]
[1]; read-out: HEK293 CC50, proliferating HEK293 cells, XTT, five days
  CC50: < 0.16 µM

## CCOC(=O)[C@H](C)NP(=O)(COCCn1cnc2c(OC)nc(N)nc21)OCc1ccccc1.O=C(O)/C=C/C(=O)O (mixture of isomers) [Compound I monofumarate, (±)-(2S)-ethyl-2-((((2-(2-amino-6-methoxy-9H-purin-9-yl)-ethoxy)-methyl)-(benzyloxy)-phosphoryl)-amino)-propionate monofumarate]
[2]; 0% RH, DVS 25° C.
  Desorption (%) Cycle 1: 0.49%
  Desorption (%) Cycle 2: 0.09%
  Sorption (%) Cycle 1: 0.49%
  Sorption (%) Cycle 2: 0.09%
[2]; 10% RH, DVS 25° C.
  Desorption (%) Cycle 1: 0.62%
  Desorption (%) Cycle 2: 0.15%
  Sorption (%) Cycle 1: 0.56%
  Sorption (%) Cycle 2: 0.18%
[2]; 20% RH, DVS 25° C.
  Desorption (%) Cycle 1: 0.71%
  Desorption (%) Cycle 2: 0.35%
  Sorption (%) Cycle 1: 0.66%
  Sorption (%) Cycle 2: 0.27%
[2]; 30% RH, DVS 25° C.
  Desorption (%) Cycle 1: 0.81%
  Desorption (%) Cycle 2: 0.47%
  Sorption (%) Cycle 1: 0.76%
  Sorption (%) Cycle 2: 0.37%
[2]; 40% RH, DVS 25° C.
  Desorption (%) Cycle 1: 0.93%
  Desorption (%) Cycle 2: 0.56%
  Sorption (%) Cycle 1: 0.86%
  Sorption (%) Cycle 2: 0.47%
[2]; 50% RH, DVS 25° C.
  Desorption (%) Cycle 2: 0.67%
  Sorption (%) Cycle 1: 0.71%
[2]; 60% RH, DVS 25° C.
  Desorption (%) Cycle 2: 0.85%
  Sorption (%) Cycle 1: 0.85%
[2]; 70% RH, DVS 25° C.
  Desorption (%) Cycle 2: 1.04%
  Sorption (%) Cycle 1: 1.02%
[2]; 80% RH, DVS 25° C.
  Desorption (%) Cycle 2: 1.30%
  Sorption (%) Cycle 1: 1.27%
[2]; 90% RH, DVS 25° C.
  Desorption (%) Cycle 2: 1.84%
  Sorption (%) Cycle 1: 1.78%
[2]; 95% RH, DVS 25° C.
  Desorption (%) Cycle 2: 2.89%
  Sorption (%) Cycle 1: 2.89%
[2]; after humidity cycle 40-0-95-0-40% RH, 25° C.
  XRPD after DVS test: No form change,
[2]; up to / in 95% RH, DVS 25° C.
  Water uptake: about 2.9%
[3]
  HPLC purity, Initial: 98.6%
[4]; compressed 5 minutes at 10 MPa
  Form change by XRPD under compression: no form change was observed
[4]; [10]
  Crystallinity by XRPD after grinding: crystallinity slightly decreased
  Form change by XRPD after grinding: no form change was observed
[4]; wetted with water or ethanol, ground 3 minutes, dried
  Form change by XRPD after granulation simulation: neither in ethanol, nor in water form change was observed
[5]; solution in pH 3.0 100 mM citrate buffer
  pH at 2 hrs: (3.05)
[5]; solution in pH 4.5 50 mM acetate buffer
  pH at 2 hrs: (4.36)
[5]; solution in pH 6.8 50 mM phosphate buffer
  pH at 2 hrs: (6.49)
[5]; solution in simulated vaginal fluid (pH adjusted with 0.2N NaOH)
  pH at 2 hrs: (5.39)
[5]; solution in water
  pH at 2 hrs: (3.11)
[6]; range of different formulations, purity by HPLC
  Degradation of tablets compared with tablets produced from Compound I: degraded less
[6]; within one month at 40° C. and 75% RH
  Degradation of tablets: far less degradation

## CCOC(=O)[C@H](C)N[P@](=O)(COCCn1cnc2c(OC)nc(N)nc21)OCc1ccccc1 (single isomer, unassigned; isomer 1) [AB12280 Isomer 1]
[7]
  CC50: 0.2 µM
[1]
  CC50: < 0.16 µM
[8]
  CC50: 23.2 µM
[9]
  CC50: 15.1 µM

## CCOC(=O)[C@H](C)N[P@@](=O)(COCCn1cnc2c(OC)nc(N)nc21)OCc1ccccc1 (single isomer, unassigned; isomer 2) [AB12280 Isomer 2]
[7]
  CC50: < 0.16 µM
[1]
  CC50: < 0.16 µM
[8]
  CC50: 7.62 µM
[9]
  CC50: 16.9 µM
